Patent US9637483B2, “Heterocyclic compound” (TAKEDA PHARMACEUTICAL COMPANY LIMITED, priority 2013, dated 2017)

How the values were obtained:
Assay type in all cases: biochemical
JAK2 = biological target: T1, JAK2 (Homo sapiens, UniProt O60674); experiment: JAK2 enzyme inhibition test (LANCE method); settings: 1 μM test compound; for inhibition at 1 µM: read-out: JAK2 enzyme inhibitory activity (%, 1 μM)
T1 construct: purchased Invitrogen
How it was run: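 Recombinant JAK2 (6 ng/mL solution) phosphorylated ULight-JAK1 peptide (300 nM solution) with ATP (45 μM solution) in pH 7.5 HEPES/MgCl2/DTT buffer for 1 hr at room temperature. After EDTA stop and europium anti-phosphotyrosine antibody for 1 hr, TR-FRET read at 665 nm; inhibition relative to enzyme-free wells as 100%.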

JAK1 = biological target: T2, JAK1 (Homo sapiens, UniProt P23458); experiment: JAK1 enzyme inhibition test (LANCE method); settings: 1 μM test compound; for inhibition at 1 µM: read-out: JAK1 enzyme inhibitory activity (%, 1 μM)
T2 construct: purchased Invitrogen
T2 sequence (P23458 whole entry): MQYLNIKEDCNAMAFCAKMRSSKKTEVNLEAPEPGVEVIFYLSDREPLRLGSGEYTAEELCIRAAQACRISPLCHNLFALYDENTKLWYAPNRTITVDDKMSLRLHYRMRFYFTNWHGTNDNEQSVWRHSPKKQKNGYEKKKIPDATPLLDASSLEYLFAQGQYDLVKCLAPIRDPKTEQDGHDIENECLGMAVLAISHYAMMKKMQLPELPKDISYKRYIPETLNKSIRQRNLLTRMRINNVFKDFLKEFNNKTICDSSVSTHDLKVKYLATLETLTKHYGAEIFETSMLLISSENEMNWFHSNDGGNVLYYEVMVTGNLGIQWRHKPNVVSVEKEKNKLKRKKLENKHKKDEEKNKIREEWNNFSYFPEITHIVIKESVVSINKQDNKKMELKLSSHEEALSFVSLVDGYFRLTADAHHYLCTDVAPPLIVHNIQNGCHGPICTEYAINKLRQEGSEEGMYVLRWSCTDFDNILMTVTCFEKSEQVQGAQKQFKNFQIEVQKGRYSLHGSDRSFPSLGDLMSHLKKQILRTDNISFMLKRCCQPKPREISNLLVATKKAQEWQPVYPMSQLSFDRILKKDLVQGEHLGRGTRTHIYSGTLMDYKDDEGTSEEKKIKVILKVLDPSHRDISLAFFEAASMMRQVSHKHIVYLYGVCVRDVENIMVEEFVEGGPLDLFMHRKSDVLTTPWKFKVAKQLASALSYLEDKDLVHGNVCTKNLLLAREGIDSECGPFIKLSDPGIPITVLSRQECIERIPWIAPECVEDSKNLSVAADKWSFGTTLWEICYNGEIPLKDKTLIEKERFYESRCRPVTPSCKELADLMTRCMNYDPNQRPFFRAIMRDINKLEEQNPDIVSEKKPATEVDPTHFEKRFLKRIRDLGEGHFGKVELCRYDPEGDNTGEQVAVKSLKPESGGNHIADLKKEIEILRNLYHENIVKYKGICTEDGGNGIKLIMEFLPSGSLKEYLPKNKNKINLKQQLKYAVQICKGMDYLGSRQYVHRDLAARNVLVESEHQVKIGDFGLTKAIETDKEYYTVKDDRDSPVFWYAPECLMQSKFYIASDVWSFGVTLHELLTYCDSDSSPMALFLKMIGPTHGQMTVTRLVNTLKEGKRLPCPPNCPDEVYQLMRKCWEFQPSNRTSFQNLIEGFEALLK
How it was run: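 TR-FRET (LANCE) with ULight-JAK1 peptide (300 nM working solution) and ATP (150 μM working solution) in HEPES pH 7.5, MgCl2, EGTA, DTT buffer; 1 h at room temperature. EDTA stop plus Eu-anti-phosphotyrosine antibody, 665 nm read after 1 h. Inhibition relative to enzyme-free wells as 100%.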

JAK3 = biological target: T3, JAK3 (Homo sapiens, UniProt P52333); experiment: JAK3 enzyme inhibition test (LANCE method); settings: 1 μM test compound; for inhibition at 1 µM: read-out: JAK3 enzyme inhibitory activity (%, 1 μM)
T3 construct: purchased Invitrogen
T3 sequence (P52333 1-1124): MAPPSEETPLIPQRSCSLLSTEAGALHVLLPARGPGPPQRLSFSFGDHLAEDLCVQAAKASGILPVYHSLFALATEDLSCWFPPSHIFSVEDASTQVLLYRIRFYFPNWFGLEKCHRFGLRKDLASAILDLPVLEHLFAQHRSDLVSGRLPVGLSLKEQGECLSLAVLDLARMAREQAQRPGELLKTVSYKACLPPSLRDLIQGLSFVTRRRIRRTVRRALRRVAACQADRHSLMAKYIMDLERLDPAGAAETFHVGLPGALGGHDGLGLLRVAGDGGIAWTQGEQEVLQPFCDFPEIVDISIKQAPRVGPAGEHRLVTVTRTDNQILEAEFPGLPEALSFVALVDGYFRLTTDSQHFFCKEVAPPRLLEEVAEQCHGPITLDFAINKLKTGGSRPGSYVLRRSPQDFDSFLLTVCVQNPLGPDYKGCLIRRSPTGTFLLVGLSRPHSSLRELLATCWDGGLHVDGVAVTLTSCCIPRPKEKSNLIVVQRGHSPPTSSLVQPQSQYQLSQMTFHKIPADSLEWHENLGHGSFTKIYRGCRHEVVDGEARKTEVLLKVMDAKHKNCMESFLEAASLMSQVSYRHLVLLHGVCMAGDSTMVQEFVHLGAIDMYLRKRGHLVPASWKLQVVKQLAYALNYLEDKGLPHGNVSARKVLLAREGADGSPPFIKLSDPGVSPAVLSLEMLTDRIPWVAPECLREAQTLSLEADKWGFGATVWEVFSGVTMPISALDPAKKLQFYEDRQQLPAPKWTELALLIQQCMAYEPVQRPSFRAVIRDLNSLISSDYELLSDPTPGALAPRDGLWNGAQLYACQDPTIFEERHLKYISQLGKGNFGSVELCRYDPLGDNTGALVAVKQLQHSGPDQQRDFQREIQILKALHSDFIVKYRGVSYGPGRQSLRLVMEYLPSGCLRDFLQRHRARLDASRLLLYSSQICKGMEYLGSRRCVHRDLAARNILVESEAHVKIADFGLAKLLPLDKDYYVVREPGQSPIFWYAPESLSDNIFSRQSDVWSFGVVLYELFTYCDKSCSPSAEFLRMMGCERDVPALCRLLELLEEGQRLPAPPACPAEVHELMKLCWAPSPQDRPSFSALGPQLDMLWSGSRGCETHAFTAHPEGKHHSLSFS
How it was run: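 Recombinant JAK3 (12 ng/mL solution) with ULight-JAK1 peptide (300 nM solution) and ATP (15 μM solution) in HEPES pH 7.5 buffer, 1 h at room temperature. EDTA stop with Eu-anti-phosphotyrosine antibody; TR-FRET at 665 nm. Inhibition relative to enzyme-free wells as 100%.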

TYK2 = biological target: T4, TYK2 (Homo sapiens, UniProt P29597); experiment: TYK2 enzyme inhibition test (LANCE method); settings: 1 μM test compound; for inhibition at 1 µM: read-out: TYK2 enzyme inhibitory activity (%, 1 μM)
T4 construct: purchased Invitrogen
T4 sequence (P29597 whole entry): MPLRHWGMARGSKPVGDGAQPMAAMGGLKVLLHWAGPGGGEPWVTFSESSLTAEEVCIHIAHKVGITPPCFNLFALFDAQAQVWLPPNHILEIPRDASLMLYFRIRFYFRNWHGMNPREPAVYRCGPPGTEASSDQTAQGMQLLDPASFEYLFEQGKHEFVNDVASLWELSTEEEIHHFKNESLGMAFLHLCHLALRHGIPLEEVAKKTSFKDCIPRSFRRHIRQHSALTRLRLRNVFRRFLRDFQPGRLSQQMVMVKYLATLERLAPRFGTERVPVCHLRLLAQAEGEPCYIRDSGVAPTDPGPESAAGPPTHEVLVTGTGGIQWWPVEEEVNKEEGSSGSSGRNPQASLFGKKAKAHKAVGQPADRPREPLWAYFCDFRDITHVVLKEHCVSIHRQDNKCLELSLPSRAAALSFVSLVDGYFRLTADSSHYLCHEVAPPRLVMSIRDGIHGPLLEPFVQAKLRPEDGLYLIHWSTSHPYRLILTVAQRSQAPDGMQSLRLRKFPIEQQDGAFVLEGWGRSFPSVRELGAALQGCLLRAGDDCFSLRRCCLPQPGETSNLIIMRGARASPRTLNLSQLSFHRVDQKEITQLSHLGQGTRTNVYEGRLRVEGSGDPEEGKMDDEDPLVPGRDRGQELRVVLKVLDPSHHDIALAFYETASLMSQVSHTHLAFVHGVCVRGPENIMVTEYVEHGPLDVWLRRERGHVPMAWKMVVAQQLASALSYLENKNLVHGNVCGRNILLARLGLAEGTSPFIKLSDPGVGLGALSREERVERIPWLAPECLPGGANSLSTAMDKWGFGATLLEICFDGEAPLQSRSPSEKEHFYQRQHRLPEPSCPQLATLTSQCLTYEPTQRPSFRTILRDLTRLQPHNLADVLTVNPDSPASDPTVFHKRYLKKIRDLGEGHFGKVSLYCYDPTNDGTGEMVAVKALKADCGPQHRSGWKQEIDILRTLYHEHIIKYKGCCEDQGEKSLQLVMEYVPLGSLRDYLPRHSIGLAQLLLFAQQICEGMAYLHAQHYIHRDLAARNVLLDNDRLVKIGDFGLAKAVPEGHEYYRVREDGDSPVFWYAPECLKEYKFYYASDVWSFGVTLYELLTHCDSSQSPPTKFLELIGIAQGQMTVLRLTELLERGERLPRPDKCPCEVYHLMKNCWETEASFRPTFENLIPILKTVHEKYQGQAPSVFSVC
How it was run: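 Recombinant TYK2 (375 ng/mL working solution) with ULight-JAK1 peptide (300 nM working solution) and ATP (30 μM working solution) in HEPES pH 7.5 buffer with MgCl2, EGTA, DTT, Tween20, BSA, reacted 1 h at RT. EDTA-stopped, Eu-anti-phosphotyrosine TR-FRET read at 665 nm; inhibition relative to enzyme-free wells as 100%.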

T1 sequence (O60674 whole entry): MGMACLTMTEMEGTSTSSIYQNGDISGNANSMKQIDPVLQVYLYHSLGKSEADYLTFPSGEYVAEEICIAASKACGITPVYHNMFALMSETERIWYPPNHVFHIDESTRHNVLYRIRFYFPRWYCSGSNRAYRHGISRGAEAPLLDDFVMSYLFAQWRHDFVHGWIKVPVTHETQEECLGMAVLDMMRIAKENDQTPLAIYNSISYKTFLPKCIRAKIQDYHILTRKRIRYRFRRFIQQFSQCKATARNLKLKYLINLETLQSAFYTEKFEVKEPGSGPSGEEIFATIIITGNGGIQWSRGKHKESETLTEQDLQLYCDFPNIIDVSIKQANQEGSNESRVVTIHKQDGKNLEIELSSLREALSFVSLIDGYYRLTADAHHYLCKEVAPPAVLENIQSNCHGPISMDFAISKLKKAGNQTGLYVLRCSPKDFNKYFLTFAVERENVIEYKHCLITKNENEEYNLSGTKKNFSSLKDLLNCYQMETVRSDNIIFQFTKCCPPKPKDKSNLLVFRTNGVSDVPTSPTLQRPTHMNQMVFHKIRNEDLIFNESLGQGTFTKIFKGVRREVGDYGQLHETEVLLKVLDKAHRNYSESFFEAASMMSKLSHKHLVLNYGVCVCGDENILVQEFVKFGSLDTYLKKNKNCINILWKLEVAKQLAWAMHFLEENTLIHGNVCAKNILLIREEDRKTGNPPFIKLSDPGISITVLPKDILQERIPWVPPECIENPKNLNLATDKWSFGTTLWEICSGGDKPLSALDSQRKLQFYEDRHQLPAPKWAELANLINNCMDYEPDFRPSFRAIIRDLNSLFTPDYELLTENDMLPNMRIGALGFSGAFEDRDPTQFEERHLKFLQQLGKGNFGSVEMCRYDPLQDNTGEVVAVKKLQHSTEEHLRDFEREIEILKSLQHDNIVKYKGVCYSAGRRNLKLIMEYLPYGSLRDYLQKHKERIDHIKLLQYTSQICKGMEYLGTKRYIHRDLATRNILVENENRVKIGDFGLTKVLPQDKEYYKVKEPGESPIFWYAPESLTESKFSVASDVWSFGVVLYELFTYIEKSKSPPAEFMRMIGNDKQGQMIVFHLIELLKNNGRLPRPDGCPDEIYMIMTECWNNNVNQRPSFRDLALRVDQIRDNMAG

SMILES	inhibition at 1 µM (JAK2)	inhibition at 1 µM (JAK1)	inhibition at 1 µM (JAK3)	inhibition at 1 µM (TYK2)	JAK2 enzyme inhibitory activity (%, 1 μM) (JAK2)	JAK1 enzyme inhibitory activity (%, 1 μM) (JAK1)	JAK3 enzyme inhibitory activity (%, 1 μM) (JAK3)	TYK2 enzyme inhibitory activity (%, 1 μM) (TYK2; 1 µM)	JAK2 enzyme inhibitory activity (%, 1 μM) (JAK2; 1 µM)	JAK3 enzyme inhibitory activity (%, 1 μM) (JAK3; 1 µM)	TYK2 enzyme inhibitory activity (%, 1 μM) (TYK2)
CC(C)[C@H](C)n1cc(-c2cc(C(C)(C)C#N)n(C)n2)c2[nH]nc(N)c2c1=O [Example 57, 2-(3-(3-amino-5-((2S)-3-methylbutan-2-yl)-4-oxo-4,5-dihydro-1H-pyrazolo[4,3-c]pyridin-7-yl)-1-methyl-1H-pyrazol-5-yl)-2-methylpropanenitrile]	99%	99%	99%	99%							
CC(C)[C@H](C)n1cc(-c2cc(C3CCOCC3)n(C)n2)c2[nH]nc(N)c2c1=O [Example 58]	99%	97%	100%	100%							
CC1CN(c2cc(-c3cn([C@@H](C)C(C)C)c(=O)c4c(N)n[nH]c34)nn2C)CCO1 (stereo partly drawn) [Example 59, 3-amino-5-((2S)-3-methylbutan-2-yl)-7-(1-methyl-5-(2-methylmorpholin-4-yl)-1H-pyrazol-3-yl)-1,5-dihydro-4H-pyrazolo[4,3-c]pyridin-4-one]					98%	97%	99%	100%			
CC1CN(c2cc(-c3cn([C@@H](C)C(C)C)c(=O)c4c(N)n[nH]c34)nn2C)CCO1 (stereo partly drawn) [Example 60, 3-amino-5-((2S)-3-methylbutan-2-yl)-7-(1-methyl-5-(2-methylmorpholin-4-yl)-1H-pyrazol-3-yl)-1,5-dihydro-4H-pyrazolo[4,3-c]pyridin-4-one]					98%	96%	99%	99%			
CC(C)[C@H](C)n1cc(-c2cc(N3CCN4CCCC4C3)n(C)n2)c2[nH]nc(N)c2c1=O (stereo partly drawn) [Example 61, 3-amino-7-(5-(hexahydropyrrolo[1,2-a]pyrazin-2 (H)-yl)-1-methyl-1H-pyrazol-3-yl)-5-((2S)-3-methylbutan-2-yl)-1,5-dihydro-4H-pyrazolo[4,3-c]pyridin-4-one]						97%			99%	100%	99%
CC(C)[C@H](C)n1cc(-c2cc(N3CCN4CCCC4C3)n(C)n2)c2[nH]nc(N)c2c1=O (stereo partly drawn) [Example 62, 3-amino-7-(5-(hexahydropyrrolo[1,2-a]pyrazin-2 (H)-yl)-1-methyl-1H-pyrazol-3-yl)-5-((2S)-3-methylbutan-2-yl)-1,5-dihydro-4H-pyrazolo[4,3-c]pyridin-4-one]						97%			99%	99%	99%
CC(C)[C@H](C)n1cc(-c2cc(N3CCC(C)(O)C3)n(C)n2)c2[nH]nc(N)c2c1=O (stereo partly drawn) [Example 63, 3-amino-7-(5-(3-hydroxy-3-methylpyrrolidin-1-yl)-1-methyl-1H-pyrazol-3-yl)-5-((2S)-3-methylbutan-2-yl)-1,5-dihydro-4H-pyrazolo[4,3-c]pyridin-4-one]						96%		99%	99%	100%	
CC(C)[C@H](C)n1cc(-c2cc(N3CCC(C)(O)C3)n(C)n2)c2[nH]nc(N)c2c1=O (stereo partly drawn) [Example 64, 3-amino-7-(5-(3-hydroxy-3-methylpyrrolidin-1-yl)-1-methyl-1H-pyrazol-3-yl)-5-((2S)-3-methylbutan-2-yl)-1,5-dihydro-4H-pyrazolo[4,3-c]pyridin-4-one]						97%		100%	99%	99%	
CNC(=O)c1cc(-c2cn(-c3c(F)cccc3F)c(=O)c3c(N)n[nH]c23)nn1C [Example 65, 3-(3-amino-5-(2,6-difluorophenyl)-4-oxo-4,5-dihydro-1H-pyrazolo[4,3-c]pyridin-7-yl)-N,1-dimethyl-1H-pyrazole-5-carboxamide]	98%	99%	100%	100%							
